“Also recorded” adds a separate entry of the source.
Legend:
MDA-MB-231 cells = test: Phosphatidylserine externalization, annexin V-FITC/PI flow cytometry; format: cell-based, human; conditions: 24 h
Method: (§1) To determine whether cell death induced by PND was occurring through apoptosis or necrosis, MDA-MB-231 and HL-60 cells were stained with annexin V-FITC and PI and monitored via flow cytometry. Cells were seeded in 24-well plates at a density of 100,000 for adherent MDA-MB-231 and 200,000 HL-60 cells in 1 ml of culture media. After overnight incubation, cells were treated with PND, and incubated for an additional 24 h. For MDA-MB-231 cells, unattached cells were harvested in an ice-cold tube, while adhered cells were detached by using HyQtase (Thermo Fisher) and incubated for around 5 min at 37° C. Both unattached and detached cells harvested from each individual well were washed with ice-cold PBS and centrifuged at 260×g for 5 min. HL-60 were centrifuged directly after the incubation period as they grow in suspension. Cells were then stained with a mixture of annexin V-FITC and PI in 100 μl of binding buffer and incubated on ice in the dark for 15 minutes, following the manufacturer's instructions (Beckman Coulter). Lastly, the cells were resuspended by the addition of 400 μl of ice-cold binding buffer and analysed by flow cytometry (Cytomics FC500; Beckman Coulter). For this series of experiments, cells treated with PBS, as solvent control; treated with H2O2, as a positive control of cytotoxicity; and untreated were included and processed in parallel. For each sample, 10,000 events/cells were collected and analysed using CXP software (Beckman Coulter). Both the experimental samples and their controls were processed similarly and assessed in triplicate. The sum of both early and late stages of apoptosis was calculated to obtain the total percentage of apoptotic cells.

HL-60 cells = test: as above; format: cell-based, human; conditions: 24 h
Method: as §1

topoisomerase II = biological target: T1, topoisomerase II (Homo sapiens, UniProt P11388); test: TopoGen Topoisomerase II Assay Kit (kDNA decatenation); format: biochemical; conditions: kDNA plus topoisomerase II; 5, 50, 500 μM PND
T1 construct: purchased TopoGen
Source text: FIG. 3. Transcriptome analyses of possible pathways activated by pyronaridine (PND) and target validation. […] Pearson correlation analysis of the transcriptional signature of PND compared to the signatures deposited in LINCS project. Compounds marked correlate with the effects of PND, wherein darker the fill, the better the correlation. […] Lane 1, catenated kinetoplast DNA (kDNA); Lane 2, decatenated kDNA; Lane 3, linear kDNA; Lane 4, kDNA plus topoisomerase II; Lane 5, kDNA plus topoisomerase plus 5 μM of PND; Lane 6, kDNA plus topoisomerase plus 50 μM of PND; Lane 7, kDNA plus topoisomerase plus 500 μM of PND; Lane 8, kDNA plus topoisomerase II plus 1 mM etoposoide (Topo II inhibitor); Lane 9, kDNA plus topoisomerase ii plus PBS; 10, kDNA plus topoisomerase II plus DMSO.
In order to explore the possible Mechanism of Action (MoA) of PND, the transcriptome results for each cell line obtained were compared with the gene-expression data from the LINCS project (http://www.lincsproject.org), that contains the gene-expression profiles from various human cells treated with FDA-approved and withdrawn compounds as well as different well-characterized chemical reagents. It was reasoned that the expression profile of each lead compound should also induce a cellular gene expression response consistent with a known MoA of drugs deposited in LINCS. […]

T1 sequence (P11388 whole entry): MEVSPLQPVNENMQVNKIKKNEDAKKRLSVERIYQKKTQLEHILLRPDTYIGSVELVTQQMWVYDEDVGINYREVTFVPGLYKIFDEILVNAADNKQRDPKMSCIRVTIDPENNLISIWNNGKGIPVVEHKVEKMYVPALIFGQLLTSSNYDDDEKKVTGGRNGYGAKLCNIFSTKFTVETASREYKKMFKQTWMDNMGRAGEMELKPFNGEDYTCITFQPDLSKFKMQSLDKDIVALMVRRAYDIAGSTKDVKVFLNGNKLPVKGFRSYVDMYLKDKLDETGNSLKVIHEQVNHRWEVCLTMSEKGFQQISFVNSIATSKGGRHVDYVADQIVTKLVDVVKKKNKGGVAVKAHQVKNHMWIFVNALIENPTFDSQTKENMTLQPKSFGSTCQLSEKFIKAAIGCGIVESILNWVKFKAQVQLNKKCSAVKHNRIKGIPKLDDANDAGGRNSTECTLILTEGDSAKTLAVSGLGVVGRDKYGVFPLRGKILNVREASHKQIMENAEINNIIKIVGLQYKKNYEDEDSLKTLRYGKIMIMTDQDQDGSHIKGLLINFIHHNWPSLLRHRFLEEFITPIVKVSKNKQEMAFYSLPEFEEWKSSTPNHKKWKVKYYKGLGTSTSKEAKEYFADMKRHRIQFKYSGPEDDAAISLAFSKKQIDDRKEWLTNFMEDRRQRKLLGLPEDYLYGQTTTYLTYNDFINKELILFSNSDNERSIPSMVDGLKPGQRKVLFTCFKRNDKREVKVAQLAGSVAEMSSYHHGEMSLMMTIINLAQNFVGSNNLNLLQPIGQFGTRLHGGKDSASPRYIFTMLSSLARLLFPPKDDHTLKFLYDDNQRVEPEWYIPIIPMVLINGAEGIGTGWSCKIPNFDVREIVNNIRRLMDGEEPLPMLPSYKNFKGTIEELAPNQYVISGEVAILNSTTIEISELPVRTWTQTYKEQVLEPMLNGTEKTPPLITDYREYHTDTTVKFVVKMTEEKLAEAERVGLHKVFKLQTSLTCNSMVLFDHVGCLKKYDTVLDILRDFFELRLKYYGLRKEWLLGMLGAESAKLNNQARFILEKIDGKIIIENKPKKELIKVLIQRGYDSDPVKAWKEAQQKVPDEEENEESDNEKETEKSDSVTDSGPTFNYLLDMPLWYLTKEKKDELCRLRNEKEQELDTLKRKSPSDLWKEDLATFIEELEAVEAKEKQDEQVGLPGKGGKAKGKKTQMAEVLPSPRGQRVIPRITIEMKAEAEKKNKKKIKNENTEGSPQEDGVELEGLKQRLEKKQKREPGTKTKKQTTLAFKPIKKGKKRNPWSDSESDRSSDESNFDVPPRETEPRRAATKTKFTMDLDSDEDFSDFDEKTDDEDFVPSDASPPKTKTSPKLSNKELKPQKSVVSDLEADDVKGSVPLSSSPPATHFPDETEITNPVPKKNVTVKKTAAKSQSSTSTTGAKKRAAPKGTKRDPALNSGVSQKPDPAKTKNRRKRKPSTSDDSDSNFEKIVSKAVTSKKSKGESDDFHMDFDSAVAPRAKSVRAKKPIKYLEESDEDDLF

COC1=CC=C2Nc3cc(Cl)ccc3C(N=C3C=C(CN4CCCC4)C(=O)C(CN4CCCC4)=C3)=C2N1 [PND, 4-[(7-chloro-2-methoxy-1,5-dihydrobenzo[b][1,5]naphthyridin-10-yl)imino]-2,6-bis(pyrrolidin-1-ylmethyl)cyclohexa-2,5-dien-1-one]
annexin positive cells (PS externalization) (MDA-MB-231 cells; 11 μM): 67.2% | annexin positive cells (PS externalization) (MDA-MB-231 cells; 22 μM): 71.1% | apoptotic cells (PS externalization) (HL-60 cells; 34 μM): 14.8% | apoptotic cells (PS externalization) (HL-60 cells; 68 μM): 30.2% | inhibition of topoisomerase II activity (topoisomerase II): activity of PND as a Topoisomerase inhibitor was confirmed; also recorded: inhibition of the topoisomerase II activity in a dose-dependent manner
